{"source": "patent US20220273608A1", "about": "“Methods for Treating Bone-Related Disorders” (University of Maryland, Baltimore, priority 2016, published 2022)", "key": {"sclerostin [1]": {"test_system": "sclerostin", "test": "Immunoblotting for sclerostin / GAPDH in Ocy454 cells", "assay_type": "cell-based, mouse", "details": "for sclerostin protein: independently of FSS", "procedure": "(§1) Cells in culture were exposed to fluid flow using a custom FSS device (63). Cell media was removed and cells were rinsed in HEPES-buffered Ringer solution containing 140 mM NaCl, 4 mM KCl, 1 mM MgSO4, 5 mM NaHCO3, 10 mM glucose, 1.8 mM CaCl2 and 10 mM HEPES (pH 7.3). Ringer solution was also used as fluid flow buffer. For Calcium-free conditions, HEPES-buffered Manganese Ringer solution, containing 140 mM NaCl, 4 mM KCl, 1 mM MgSO4, 5 mM NaHCO3, 10 mM glucose, 2 mM MnCI and 10 mM HEPES (pH 7.3), was used, and cells were loaded with BATPA AM ester (10 μM, 30 min)."}, "CaMKII": {"test_system": "CaMKII", "assay_type": "cell-based", "details": "for phospho-CaMKII (CaMKII activation): independently of FSS", "procedure": "as §1"}, "Ocy454 cells [2]": {"test_system": "Ocy454 cells", "test": "ROS imaging (CellROX) of Ocy454 cells", "assay_type": "cell-based, mouse", "details": "for ROS production: no FSS, CellROX", "procedure": "(§2) Cells in culture were exposed to fluid flow using a custom FSS device (63). Cell media was removed and cells were rinsed in HEPES-buffered Ringer solution containing 140 mM NaCl, 4 mM KCl, 1 mM MgSO4, 5 mM NaHCO3, 10 mM glucose, 1.8 mM CaCl2 and 10 mM HEPES (pH 7.3). Ringer solution was also used as fluid flow buffer. For Calcium-free conditions, HEPES-buffered Manganese Ringer solution, containing 140 mM NaCl, 4 mM KCl, 1 mM MgSO4, 5 mM NaHCO3, 10 mM glucose, 2 mM MnCI and 10 mM HEPES (pH 7.3), was used, and cells were loaded with BATPA AM ester (10 μM, 30 min). […] For Ca^2+ imaging, cells were loaded with Fluo-4 AM ester (ThermoFisher, 5 μM) for 30 min, washed, and allowed to rest for 15 min to allow dye de-esterification, as described. For ROS imaging, cells were loaded with CellROX (ThermoFisher, 5 μM) for 30 min and then washed 3 times, per the manufacturer's recommendations. Individual wells were imaged as described (39). Time-lapse fluorescence intensity measurements were collected using ImageJ Time Series Analyzer plugin and data was analyzed and plotted using Origin Pro software. Final results represent a minimum of three independent experiments performed on separate days with new cultures (n>700 cells/treatment group). All conditions were run with controls on each experimental day."}, "Ocy454 cells [3]": {"test_system": "Ocy454 cells", "test": "Ca2+ imaging (Fluo-4) of Ocy454 cells, with or without fluid shear stress", "assay_type": "cell-based, mouse", "procedure": "as §2"}, "Ocy454 cells [4]": {"test_system": "Ocy454 cells", "test": "Immunostaining for α-tubulin (microtubule network) in Ocy454 cells", "details": "α-tubulin immunofluorescence"}, "Glu-tubulin [5]": {"test_system": "Glu-tubulin", "test": "Glu-tubulin in ex vivo murine long bone (western blot)", "details": "murine cortical bone ex vivo", "description": "The antibodies used were: sclerostin (R&D Sytems, AF1589), α-tubulin (Sigma, T9026), Glu-tubulin (Abcam, ab48389), phospho-CamK II Thr^286 (Cell Signaling Technologies, 12716S), total CaMKII (Cell Signaling Technologies, 11945S), and GAPDH (Millipore, MAB374)."}, "Ocy454 cells [6]": {"test_system": "Ocy454 cells", "test": "Atomic force microscopy nano-indentation of Ocy454 cells", "assay_type": "cell-based, mouse", "details": "AFM nanoindentation, 2 h treatment", "quoted_text": "Ocy454 cells were plated onto 22 mm×22 mm glass coverslips and allowed to grow for 16-24 h at 37° C., 5% CO2 with αMEM media. Thereafter, cells were washed with PBS before being incubated with pharmacological agents as indicated for 2 h at 37° C., 5% CO2 in αMEM. After each treatment, cells were transferred to 60 mm culture dishes with pre-warmed HEPES based media containing identical concentrations of the aforementioned agents. Cells were probed with an MFP-1D atomic force microscope (Asylum Research) using MLCT cantilevers (Bruker) with a nominal spring constant of k=0.01 N/m. The pull distance used was 2 μm with a tip velocity of 4 μm/s to generate ˜1-2 nN of force onto the cell corresponding to ˜1 μm indentation ensuring that the cytoskeleton was effectively being probed. The elastic moduli (stiffness) of the cells were calculated using the Sneddon Hertz model as described (66)."}, "Glu-tubulin [7]": {"test_system": "Glu-tubulin", "details": "Ocy454 cells in vitro", "source_text": "The antibodies used were: a-tubulin (Sigma, T9026), Glu-tubulin (Abcam, ab48389) and TRPV4 (Abcam, ab39260).\nWestern blotting of whole cell extracts isolated from cells in culture following FSS or extracts isolated from murine long bone were done. Equal amounts of protein were loaded and electrophoresed on 10% SDS-PAGE gels and transferred to polyvinylidene difluoride membranes. Membranes were blocked in 5% non-fat dry milk (unless otherwise stated), probed with the indicated primary antibodies overnight and 4° C. Antibodies were detected with the appropriate horseradish peroxidase-conjugated secondary antibodies (Cell Signaling Technology) and enhanced chemiluminescence detection reagent (Biorad). […] Blots were acquired using an EpiChem gel documentation system (UVP Bioimaging Systems) and analyzed using ImageJ software."}, "sclerostin [8]": {"test_system": "sclerostin", "test": "Bone derived sclerostin in colchicine treated aged mice", "assay_type": "in vivo", "details": "aged mice (78 weeks), 1 mg/L colcrys in drinking water, 8 weeks"}, "aged mice [9]": {"test_system": "aged mice", "test": "Muscle testing in colchicine treated aged mice", "assay_type": "in vivo", "details": "8 weeks colchicine", "procedure": "Young and aged mice were treated with colchicine as per the bone formation study followed by euthanasia and muscle testing. After 8 weeks aged mice had increased muscle power."}, "aged mice [10]": {"test_system": "aged mice", "test": "Bone formation and bone mass (DEXA, microCT) in colchicine treated aged mice", "assay_type": "in vivo"}, "aged mice [11]": {"test_system": "aged mice", "test": "White adipose tissue in colchicine treated aged mice"}, "[12]": {"details": "cells treated with H2O2, no FSS"}, "[13]": {"details": "whole body DEXA, 8 weeks colchicine"}}, "note": "Entries after “also recorded” stand apart in the source; their conditions may differ. Read-outs that look alike come from different tables or passages of the source.", "data": [{"smiles": "CC(=O)OCOC(=O)CN(CC(=O)OCOC(C)=O)c1ccccc1OCCOc1ccccc1N(CC(=O)OCOC(C)=O)CC(=O)OCOC(C)=O", "note": "[BAPTA AM]", "values": [{"measurement": "FSS-induced decrease in sclerostin protein", "setting": "sclerostin [1]; 4 dynes/cm^2 FSS", "result": "inhibited"}, {"measurement": "FSS-induced CaMKII phosphorylation", "setting": "CaMKII; 4 dynes/cm^2 FSS", "result": "inhibited"}]}, {"smiles": "O=C(NC1(c2ccccc2)CC1)c1c(CN2CCC(N3CCCCC3)CC2)c(-c2cccc(C(F)(F)F)c2)nc2cc(Br)ccc12", "note": "[GSK2193874]", "values": [{"measurement": "H2O2-induced ROS", "setting": "Ocy454 cells [2]; [12]", "result": "without affecting"}, {"measurement": "% Cells Responding to FSS, Ca2+ response (mechano-sensitivity)", "setting": "Ocy454 cells [3]; 4 dynes/cm^2 FSS", "result": "statistically significant decrease"}, {"measurement": "Peak(ΔF/F) magnitude of Ca2+ response (mechano-responsiveness)", "setting": "Ocy454 cells [3]; 4 dynes/cm^2 FSS", "result": "statistically significant decrease"}, {"measurement": "H2O2-induced Ca2+ influx", "setting": "Ocy454 cells [3]; [12]", "result": "blunted"}, {"measurement": "FSS-induced decrease in sclerostin protein", "setting": "sclerostin [1]; 4 dynes/cm^2 FSS", "result": "blunted"}, {"measurement": "FSS-induced CaMKII phosphorylation", "setting": "CaMKII; 4 dynes/cm^2 FSS", "result": "reduction"}]}, {"smiles": "CC(C)C[C@H](NC(=O)c1cc2ccccc2s1)C(=O)N1CCN(C(=O)[C@H](CO)NS(=O)(=O)c2ccc(Cl)cc2Cl)CC1", "note": "[GSK-1016790A]", "values": [{"measurement": "ROS production", "setting": "Ocy454 cells [2]", "result": "insufficient to induce"}, {"measurement": "sclerostin protein", "setting": "sclerostin [1]", "result": "reduction"}, {"measurement": "phospho-CaMKII (CaMKII activation)", "setting": "CaMKII", "result": "activation"}]}, {"smiles": "OO", "note": "[H2O2, Hydrogen peroxide]", "values": [{"measurement": "ROS production", "setting": "Ocy454 cells [2]", "result": "stimulated"}, {"measurement": "intracellular Ca2+", "setting": "Ocy454 cells [3]; no FSS, Fluo-4", "result": "stimulated"}, {"measurement": "sclerostin protein", "setting": "sclerostin [1]", "result": "reduced"}, {"measurement": "phospho-CaMKII (CaMKII activation)", "setting": "CaMKII", "result": "increased"}]}, {"smiles": "COc1ccc(S(=O)(=O)N(CCO)c2ccccc2CN(C)C/C=C/c2ccc(Cl)cc2)cc1", "note": "[KN-93]", "values": [{"measurement": "FSS-induced decrease in sclerostin protein", "setting": "sclerostin [1]; 4 dynes/cm^2 FSS", "result": "prevented"}]}, {"smiles": "CC(=O)N[C@@H](CS)C(=O)O", "note": "[NAC, N-acetylcysteine]", "values": [{"measurement": "FSS-induced Ca2+ response", "setting": "Ocy454 cells [3]; 4 dynes/cm^2 FSS", "result": "abrogated"}, {"measurement": "FSS-induced Ca2+ response", "setting": "Ocy454 cells [3]; 16 dynes/cm^2 FSS", "result": "abrogated"}, {"measurement": "FSS-induced decrease in sclerostin protein", "setting": "sclerostin [1]; FSS, magnitude not stated", "result": "blunting"}, {"measurement": "FSS-induced CaMKII phosphorylation", "setting": "CaMKII; FSS, magnitude not stated", "result": "reduction"}]}, {"smiles": "CC(=O)O[C@H]1C(=O)[C@@]2(C)[C@H]([C@H](OC(=O)c3ccccc3)[C@]3(O)C[C@H](OC(=O)[C@H](O)[C@@H](NC(=O)c4ccccc4)c4ccccc4)C(C)=C1C3(C)C)[C@]1(OC(C)=O)CO[C@@H]1C[C@@H]2O", "note": "[Taxol]", "values": [{"measurement": "microtubule network density / structure", "setting": "Ocy454 cells [4]", "result": "increase in microtubule density"}, {"measurement": "% Cells Responding to FSS, Ca2+ response (mechano-sensitivity)", "setting": "Ocy454 cells [3]; 4 dynes/cm^2 FSS", "result": "statistically significant decrease"}, {"measurement": "FSS-induced Ca2+ response", "setting": "Ocy454 cells [3]; 4 dynes/cm^2 FSS", "result": "blunts"}, {"measurement": "Peak(ΔF/F) magnitude of Ca2+ response (mechano-responsiveness)", "setting": "Ocy454 cells [3]; 4 dynes/cm^2 FSS", "result": "decrease"}, {"measurement": "% Cells Responding to FSS, Ca2+ response (mechano-sensitivity)", "setting": "Ocy454 cells [3]; 16 dynes/cm^2 FSS", "result": "restored"}, {"measurement": "Peak(ΔF/F) magnitude of Ca2+ response (mechano-responsiveness)", "setting": "Ocy454 cells [3]; 16 dynes/cm^2 FSS", "result": "restored"}, {"measurement": "FSS-induced decrease in sclerostin protein", "setting": "sclerostin [1]; 4 dynes/cm^2 FSS", "result": "blunts"}, {"measurement": "FSS-induced decrease in sclerostin protein", "setting": "sclerostin [1]; 16 dynes/cm^2 FSS", "result": "restored"}, {"measurement": "amount of Glu-tubulin", "setting": "Glu-tubulin [5]", "result": "markedly increased"}, {"measurement": "FSS-induced CaMKII phosphorylation", "setting": "CaMKII; 4 dynes/cm^2 FSS", "result": "reduced; also recorded: blunts"}, {"measurement": "FSS-induced CaMKII phosphorylation", "setting": "CaMKII; 16 dynes/cm^2 FSS", "result": "restored"}, {"measurement": "elastic modulus (cytoskeletal stiffness)", "setting": "Ocy454 cells [6]", "result": "increased"}, {"measurement": "amount of Glu-tubulin", "setting": "Glu-tubulin [7]", "result": "markedly increased; also recorded: marked increase"}]}, {"smiles": "COc1cc2c(c(OC)c1OC)-c1ccc(OC)c(=O)cc1[C@@H](NC(C)=O)CC2", "note": "[colchicine]", "values": [{"measurement": "bone derived sclerostin", "setting": "sclerostin [8]", "result": "decreased; also recorded: reduced"}, {"measurement": "maximum contraction velocity", "setting": "aged mice [9]", "result": "increase"}, {"measurement": "maximum muscle power", "setting": "aged mice [9]", "result": "increase; also recorded: improved"}, {"measurement": "muscle mass in the gastrocnemius muscle", "setting": "aged mice [9]", "result": "did not increase"}, {"measurement": "microtubule network density / structure", "setting": "Ocy454 cells [4]", "result": "reduction"}, {"measurement": "% Cells Responding to FSS, Ca2+ response (mechano-sensitivity)", "setting": "Ocy454 cells [3]; 4 dynes/cm^2 FSS", "result": "decreased"}, {"measurement": "Peak(ΔF/F) magnitude of Ca2+ response (mechano-responsiveness)", "setting": "Ocy454 cells [3]; 4 dynes/cm^2 FSS", "result": "reducing"}, {"measurement": "% Cells Responding to FSS, Ca2+ response (mechano-sensitivity)", "setting": "Ocy454 cells [3]; 16 dynes/cm^2 FSS", "result": "decreased"}, {"measurement": "Peak(ΔF/F) magnitude of Ca2+ response (mechano-responsiveness)", "setting": "Ocy454 cells [3]; 16 dynes/cm^2 FSS", "result": "reducing"}, {"measurement": "trabecular bone mass", "setting": "aged mice [10]; 8 weeks colchicine", "result": "No changes were observed"}, {"measurement": "bone accumulation", "setting": "aged mice [10]; aged mice", "result": "increases"}, {"measurement": "bone formation rate (BFR) on the cortical bone perimeter", "setting": "aged mice [10]; aged mice (78 weeks), 1 mg/L colcrys in drinking water, 8 weeks", "result": "increased; also recorded: improved"}, {"measurement": "cortical bone volume", "setting": "aged mice [10]; microCT, 8 weeks colchicine", "result": "tended towards increases"}, {"measurement": "polar mean moment of inertia", "setting": "aged mice [10]; microCT, 8 weeks colchicine", "result": "tended towards increases"}, {"measurement": "bone mineral content (BMC)", "setting": "aged mice [10]; [13]", "result": "tended towards increases"}, {"measurement": "bone mineral density (BMD)", "setting": "aged mice [10]; [13]", "result": "tended towards increases"}, {"measurement": "FSS-induced decrease in sclerostin protein", "setting": "sclerostin [1]; 4 dynes/cm^2 FSS", "result": "eliminated"}, {"measurement": "white adipose accumulation / fat mass in white adipose depots", "setting": "aged mice [11]", "result": "reduced"}, {"measurement": "adipocyte area", "setting": "aged mice [11]; 8 weeks colchicine", "result": 1441.64, "unit": "μm^2"}, {"measurement": "gonadal fat", "setting": "aged mice [11]; 8 weeks colchicine", "result": "reduced"}, {"measurement": "inguinal fat", "setting": "aged mice [11]; 8 weeks colchicine", "result": "reduced"}, {"measurement": "FSS-induced CaMKII phosphorylation", "setting": "CaMKII; 4 dynes/cm^2 FSS", "result": "eliminated"}]}]}
